Consider 2 compounds from patent US20020064500A1, “Radiotracers for in vivo study of acetylcholinesterase and alzheimer's disease” (priority 1999, published 2002).

Data set [1] addresses acetylcholinesterase (Homo sapiens, UniProt P22303). In words: PET imaging of acetylcholinesterase in a human brain, with and without ARICEPT. To be noted: for Normalized uptake (nCi/ccBRAIN/nCi/ccPLASMA): healthy human subject, i.v., PET, average of scans after 42 minutes; for Normalized uptake post 5 mg ARICEPT (nCi/ccBRAIN/nCi/ccPLASMA): same subject, 3 hours after oral 5 mg ARICEPT tablet.
Experimental: The same imaging study was then performed.
A thermoplastic mask was used for PET positioning. Use of a thermoplastic mask is routine for PET studies to help immobilize the head and to provide spacial facial landmarks. To produce a brain image, PETwas begun, and 25 scans were obtained in 90 minutes. After each scan, heated venous blood samples were withdrawn from the back of the patient's hand, to measure the amount of the radiolabeled compound in the blood, in units of nCi/cc blood. The brain images were used to calculate nCi/ccBRAIN for each scan. The average of the ratio (nCi/ccBRAIN/nCi/ccPLASMA)control (i.e., tissue radioactivity/plasma radioactivity or nanocurries per cubic centimeter of brain tissue divided by nanocurries per cubic centimeter of blood), over the scans collected after 42 minutes, for each area of the brain, are shown in Table 1.
Brain images and brain time radioactivity curves were obtained in the same manner as above and the average nCi/ccBRAIN/nCi/ccPLASMA ratio was calculated for each area the brain.

The target of data set [2] is T1, acetylcholinesterase (Mus musculus, UniProt P21836).
T1 construct: from tissue; host or cells: brain regions of CD-1 mice after intravenous injection
T1 sequence (P21836 32-614): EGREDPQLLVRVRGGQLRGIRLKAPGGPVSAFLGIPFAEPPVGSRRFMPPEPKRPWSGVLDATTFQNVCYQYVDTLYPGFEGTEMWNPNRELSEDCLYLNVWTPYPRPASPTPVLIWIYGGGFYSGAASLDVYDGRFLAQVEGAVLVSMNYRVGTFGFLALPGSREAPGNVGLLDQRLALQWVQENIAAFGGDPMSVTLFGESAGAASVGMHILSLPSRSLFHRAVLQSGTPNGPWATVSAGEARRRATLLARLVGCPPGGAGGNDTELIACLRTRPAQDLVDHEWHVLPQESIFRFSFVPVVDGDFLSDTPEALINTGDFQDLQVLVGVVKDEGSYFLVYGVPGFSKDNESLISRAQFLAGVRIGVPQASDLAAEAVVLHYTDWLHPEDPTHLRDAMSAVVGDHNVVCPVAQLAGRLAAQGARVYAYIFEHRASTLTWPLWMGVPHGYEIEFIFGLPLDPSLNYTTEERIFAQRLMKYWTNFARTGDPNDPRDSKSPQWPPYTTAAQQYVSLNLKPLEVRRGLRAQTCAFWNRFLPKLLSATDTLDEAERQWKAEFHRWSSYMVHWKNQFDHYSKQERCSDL
Nature of the data set: Kinetic experiment: regional brain biodistribution in mice. It counts as in vivo, male Charles River mice (CD-1). As to conditions: for percentage of the administered dose/gram of brain tissue (%ID/g): 5 minutes post i.v. injection, mean of 3. The procedure: 21 male Charles River mice (CD-1) were divided into 7 groups of 3 mice each. Each mouse was injected via a tail vein with approximately 350 μCi of compound II (10 μg). Each mouse was sacrificed by cervical dislocation at the following times post injection: group 1 at 5 minutes; group 2 at 15 minutes; group 3 at 30 minutes; group 4 at 45 minutes; group 5 at 60; group 6 at 90 minutes; and group 7 at 120 minutes. At the time of sacrifice of a particular group, the brains of each mouse were quickly removed and dissected on ice. The following regions were collected weighed and assayed for radioactivity: cerebellum, hippocampus, striatum, parietal cortex, thalamus. The following values, averaged over each group of three mice, for the percentage of the administered dose of compound II/gram of brain tissue (%ID/g), were found in the following brain regions at five minutes post injection: striatum (6.19% injected dose/gram tissue); thalamus (4.76%); cortex (4.01%); cerebellum (3.76%); and hippocampus (3.41%).

Data set [3] concerns the target T1, acetylcholinesterase. Nature of the data set: Dose response experiment: blocking of compound II brain binding by compound III in mice. It counts as in vivo. As to conditions: 5 minutes before compound II i.v. As for the experimental part:
Male Charles River mice (CD-1) were divided into 5 groups of 3 mice each. Non-radiolabeled compound III was administered to each mouse in increasing doses as follows: group1, saline controls; group 2, 0.01 mg/kg; group 3, 0.1 mg/kg; group 4, 0.3 mg/kg; and group 5,1 mg/kg. Five minutes after the injection with compound III or the saline control, each mouse was administered compound II (421 μCi, 8 μg) by intravenous injection as above. Each mouse was sacrificed by cervical dislocation and brain tissue dissected and the radioactivity of each brain region assayed as described above. The values, averaged over each group of three mice, for the percentage of the administered dose of compound II/gram of brain tissue at each dosage of compound III for each brain region were calculated (FIG. 4 below).

acetylcholinesterase (Homo sapiens, UniProt P22303), sequence (P22303 32-614): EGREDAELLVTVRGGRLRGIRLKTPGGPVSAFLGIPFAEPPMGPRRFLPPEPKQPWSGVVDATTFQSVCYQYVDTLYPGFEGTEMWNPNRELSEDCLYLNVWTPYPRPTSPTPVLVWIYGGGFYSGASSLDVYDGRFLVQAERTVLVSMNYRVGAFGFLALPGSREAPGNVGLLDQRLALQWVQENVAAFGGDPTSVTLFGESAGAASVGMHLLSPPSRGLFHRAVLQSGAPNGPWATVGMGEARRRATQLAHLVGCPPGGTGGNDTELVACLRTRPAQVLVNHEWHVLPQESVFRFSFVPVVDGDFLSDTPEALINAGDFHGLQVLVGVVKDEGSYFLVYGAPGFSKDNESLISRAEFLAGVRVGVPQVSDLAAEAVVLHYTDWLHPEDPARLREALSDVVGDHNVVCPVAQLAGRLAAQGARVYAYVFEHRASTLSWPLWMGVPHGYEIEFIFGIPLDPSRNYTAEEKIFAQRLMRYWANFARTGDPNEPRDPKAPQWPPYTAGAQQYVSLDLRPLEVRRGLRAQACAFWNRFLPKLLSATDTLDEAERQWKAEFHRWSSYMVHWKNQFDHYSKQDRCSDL

For the compound `[11CH3]N1C(=O)Cc2cc3c(CCC4CCN(Cc5ccccc5)CC4)noc3cc21` [compound II, 5,7-dihydro-7-[^11C]-methyl-3-[2-[1-(phenylmethyl)4-piperidinyl]ethyl]-6H-pyrrolo[3,2-f]-1,2-benzisoxazole-6-one], the “Normalized uptake (nCi/ccBRAIN/nCi/ccPLASMA)” value at acetylcholinesterase [1] (Caudate) came out at 54 nCi/ccBRAIN/nCi/ccPLASMA; at acetylcholinesterase [1] (Cerebellum), 47 nCi/ccBRAIN/nCi/ccPLASMA; on acetylcholinesterase [1] (Frontal cortex) it was 26 nCi/ccBRAIN/nCi/ccPLASMA; at acetylcholinesterase [1] (Hippocampus) it was 30 nCi/ccBRAIN/nCi/ccPLASMA; at acetylcholinesterase [1] (Medulla Oblongata) it was 40 nCi/ccBRAIN/nCi/ccPLASMA; on acetylcholinesterase [1] (Occipital cortex), 23 nCi/ccBRAIN/nCi/ccPLASMA. In addition, the “Normalized uptake (nCi/ccBRAIN/nCi/ccPLASMA)” value at acetylcholinesterase [1] (Parietal cortex) amounted to 27 nCi/ccBRAIN/nCi/ccPLASMA; at acetylcholinesterase [1] (Pons) it was 36 nCi/ccBRAIN/nCi/ccPLASMA; on acetylcholinesterase [1] (Putamen), 61 nCi/ccBRAIN/nCi/ccPLASMA; at acetylcholinesterase [1] (Temporal cortex), 26 nCi/ccBRAIN/nCi/ccPLASMA; on acetylcholinesterase [1] (Thalamus), 33 nCi/ccBRAIN/nCi/ccPLASMA. Moreover, the “Normalized uptake post 5 mg ARICEPT (nCi/ccBRAIN/nCi/ccPLASMA)” value at acetylcholinesterase [1] (Caudate) turned out to be 19 nCi/ccBRAIN/nCi/ccPLASMA; on acetylcholinesterase [1] (Cerebellum), 13 nCi/ccBRAIN/nCi/ccPLASMA; on acetylcholinesterase [1] (Frontal cortex), 7 nCi/ccBRAIN/nCi/ccPLASMA; on acetylcholinesterase [1] (Parietal cortex), 7 nCi/ccBRAIN/nCi/ccPLASMA; at acetylcholinesterase [1] (Putamen) it was 26 nCi/ccBRAIN/nCi/ccPLASMA. For the same compound, at acetylcholinesterase [2] (30 minutes post i.v. injection), the “highest specific binding defined as striatum-cerebellum” value is reported as 4.33%. For the same compound, the “percentage of the administered dose/gram of brain tissue (%ID/g)” value at acetylcholinesterase [2] (cerebellum) was 3.76%; at acetylcholinesterase [2] (cortex) it was 4.01%; at acetylcholinesterase [2] (hippocampus), 3.41%; on acetylcholinesterase [2] (striatum), 6.19 % injected dose/gram tissue; at acetylcholinesterase [2] (thalamus), 4.76%.
For `O=C1Cc2cc3c(CCC4CCN(Cc5ccccc5)CC4)noc3cc2N1` [compound III, 5,7-dihydro-3-[2-[1-(phenylmethyl)-4-piperidinyl]ethyl]-6H-pyrrolo[3,2-f]-1,2-benzisoxazole-6-one], the “reduction of compound II binding in striatum relative to the saline control” value on acetylcholinesterase [3] (compound III 0.1 mg/kg) worked out at 6%; at acetylcholinesterase [3] (compound III 0.3 mg/kg), 20%; at acetylcholinesterase [3] (compound III 1 mg/kg) it was 52%.
